These results are taken from patent US11008325B2, “Inhibitors of cancer invasion, attachment, and/or metastasis” (VIRGINIA COMMONWEALTH UNIVERSITY, priority 2016, dated 2021).

Assay [1] deals with T1, MDA-9 PDZ12 tandem domain (PDZ1) (Homo sapiens, UniProt O00560).
T1 construct: the MDA-9/Syntenin construct used for the screen contains both PDZ domains; made in house
T1 sequence (O00560 110-274): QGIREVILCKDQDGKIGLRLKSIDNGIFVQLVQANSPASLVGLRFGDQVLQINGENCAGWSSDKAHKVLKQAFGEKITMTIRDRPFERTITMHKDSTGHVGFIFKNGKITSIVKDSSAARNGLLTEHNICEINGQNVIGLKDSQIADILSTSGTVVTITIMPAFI
As to the kind of experiment: NMR [15N,1H] HSQC chemical shift change and titration binding. As to the method:
FIGS. 4A-4E. FIG. 4A. […] FIG. 4B. Superposition of 2D [^15N, ^1H]-HSQC spectra of 50 μM MDA-9 PDZ12 tandem domain in the absence and presence of 350 μM 113B7. FIG. 4C. Binding curve and representative spectra for the titration of 113B7 against MDA-9 PDZ12 tandem domain. Top: Zoom of box region in FIG. 4B after titrating 113B7 into Mda9 PDZ, tandem domain. […] Bottom: Titration curve of 113B7 for residue A147. […] FIG. 4D. […] FIG. 4E. Docked structure of 113B7 in complex with MDA-9 PDZ tandem domain (PDB: 1W9E). The pose was obtained with GOLD. Two PDZ domains of MDA-9 are labeled.
NMR based screening of an house assembled fragment library of about 5,000 compounds using [^15N,^1H] […] The proposed docked structure of PDZ1i in the PDZ1 domain and interdomain of MDA-9/Syntenin is shown in FIGS. 4A-4E and FIG. 5, while the chemical structure of PDZ1i is also shown in FIGS. 4A-4E and FIG. 5.
In all binding assays, the MDA-9/Syntenin construct used for the screen contains both PDZ domains. Constructs uniformly labeled with ^15N and ^13C or ^13C-Met selectively labeled are used for binding, mapping and structural studies. These same proteins are used for ITC binding studies.

For the next assay, the system named is ImPHFA cells. As to the kind of experiment: clonogenic radiosurvival (colony formation). The note with it: 50 μM PDZ1i 2 h prior to radiation, 14 d. Format: cell-based, human. As to the method:
(§1) FIGS. 8A-8D. PDZ1i produces similar effects to mda-9/syntenin knockdown post-radiation. FIG. 8A. ImPHFA and U87 cells were treated with 50 μM PDZ1i 2 h prior to radiation and analyzed for colony formation after 14 d. FIG. 8B. U87 cells were treated with 50 μM PDZ1i 2 h prior to radiation and analyzed via MTT assay after 24 h. FIG. 8C. U87 cells were pretreated with 50 μM PDZ1i 2 h prior to radiation and subsequently seeded in a trans-well Matrigel invasion assay and stained after 24 h. Invasion was quantified from 5 random fields in FIG. 8D. Error bars=±s.d. *p<0.05, **p<0.01.
(§2) Clonogenic radiosurvival experiments were carried out as described previously (4,7). Briefly, cells were diluted, seeded on 6-cm dishes, and after the cells attached, treated with DMSO or PDZ1i (12.5, 25, or 50 μM) in the medium for 2 h before irradiation. Cells were incubated overnight, and the medium changed to nondrug containing medium 16 h postirradiation. Cells were incubated further for 14 days, stained with 2% Giemsa solution, and colonies consisting of 50 or more were counted. Cell viability was assessed through MTT analysis as described previously (8).

The test system of a further assay is U87 cells. As to the kind of experiment: clonogenic radiosurvival (colony formation). The note with it: 50 μM PDZ1i 2 h prior to radiation, 14 d. Format: cell-based, human. As to the method:
as §1, §2

The next assay in a line: migration (SAR, Table 4). The format is cell-based.
The next assay relates to ARCaPM-Luc cells. As to the kind of experiment: ARCaPM-Luc experimental metastasis model, PDZ1i treatment. Format: in vivo, athymic nude mice. The note with it: 30 mg/kg body weight I.P. As to the method:
FIG. 19A-19F. PDZ1i suppresses prostate cancer metastasis and tumor progression. FIG. 19A) Survival data for athymic nude mice in which DMSO or PDZ1i pre-treated ARCaPM cells were injected. FIG. 19B) Survival data for athymic nude mice which were injected with (n=5, each group) ARCaPM-Luc (1×10^6 cells in 100 μl saline) through an intracardiac route. Mice received either vehicle or PDZ1i every alternative day (9 injections during the first three months) and maintained until they needed to be euthanized. FIG. 19C) Survival data for C57BL/6 mice injected through the intracardiac route with RM1-Luc. Vehicle or PDZ1i was administered through intraperitoneal injection every alternate day (total 3 injections during the first week). Survival curves were generated using 6 control vehicle-treated and 5 PDZ1i-treated. Kaplan—Meier survival curves were prepared using Graph Pad software. […] Graphical representation of the average prostate weights from control and treated groups. FIG. 19E and FIG. 19F) Photomicrographs representing the histological changes in prostate sections obtained from 6-month old Hi-Myc mice receiving either vehicle (FIG. 19E) or PDZ1i (FIG. 19F).
To evaluate potential therapeutic efficacy of PDZ1i four sets of in vivo experiments were conducted. […]

“Also recorded” adds a separate entry of the source. Where two headings read alike, the source gives them in different places. Bounds are passed on as bounds.

As usually defined, the Kd is the constant that tells how readily two partners part at equilibrium. For the compound `Cc1cc(NC(=O)c2nc3[nH]c4c(c(=O)n3n2)CCC4)c(C)cc1NC(=O)CCc1nnc(-c2ccccc2)o1` [113B7, N-(2,5-dimethyl-4-(3-(5-phenyl-1,3,4-oxadiazol-2-yl)propanamido)phenyl)-8-oxo-5,6,7,8-tetrahydro-4H-cyclopenta[d][1,2,4]triazolo[1,5-a]pyrimidine-2-carboxamide], the “dissociation constant / affinity in words” value in assay [1] (NMR titration (and ITC)) is recorded as “low micromolar range; also recorded: micromolar affinity”. Also, the equilibrium dissociation constant (Kd) in assay [1] (NMR titration following backbone amide of residue 147, read-out: Kd values) is 21.4 ± 8.62 µM; in assay [1] (NMR titration, read-out: upper limit for the dissociation constant of the complex, Kd) it was less than 10 µM; in assay [1] (estimated by NMR titration in 2D HSQC experiments (Table 4), read-out: Kd), roughly 10 µM. Also, the Binding affinity ranking in assay [1] (chemical shift change (DPPM) of backbone amide of residue 147, 50 μM PDZ12, compound at 1:1 molar ratio) was 4 (4 for DPPM 0.06-0.08). In addition, the “radiosensitivity (colony formation)” value is recorded as “did not further radiosensitize” with ImPHFA cells and “markedly more radiosensitivity” in the assay on U87 cells. In “migration (SAR, Table 4)”, the “% migr.” value amounted to 62%. Also, the “metastatic lesions by BLI” value in the assay on ARCaPM-Luc cells was “significantly fewer lesions”. For the same compound, the survival result in the assay on ARCaPM-Luc cells was “prolonged survival”.
